# Measured values taken from article PMC5226491, “Efficient therapeutic delivery by a novel cell-permeant peptide derived from KDM4A protein for antitumor and antifibrosis” (Oncotarget, 2016).
# Tests used:
# different cell lines [1] = experiment: Uptake of FITC-labeled hPP10 in different cell lines; type: cell-based; settings: for Effect of temperature on internalization: incubation at 4°C or 37°C, with or without DMSO
# Protocol: (§1) Intracellular fluorescence intensity quantification was measured using Multimode Microplate Reader (Tecan 2000; Tecan, Mannedorf, Switzerland). The intracellular uptake of FITC-labeled peptide was performed as described previously. Briefly, after the incubation, cells were washed and then lysed by adding 300 μl lysing buffer (0.1 M NaOH) for 10 min, the cell lysates were harvested and centrifuged (14000 g for 5 min), the supernatant was used to measure the fluorescence intensity. The fluorescence of cellular uptake is expressed as fluorescence intensity per mg of total cellular protein. All experiments were repeated at least three times and always performed in triplicate.
# [2] = tested on: primary cultured cells (mouse spleen lymphocytes, human peripheral blood lymphocytes, mouse primary fibroblast cells); experiment: Uptake of FITC-labeled hPP10 in primary cultured cells; type: cell-based; settings: mouse spleen lymphocytes and hPBMCs with 5% DMSO treatment
# Protocol: The internalization of FITC conjugated hPP10 into cultured cells was observed using fluorescence microscopy. All types of cells were plated in 24-well-plates (Greiner, Germany) and cultivated to semi-confluence in RPMI-1640 medium in a CO2 incubator for 24 h at 37°C. Cells were washed with PBS, followed by 5.0 μM FITC-labeled peptide or fusion protein incubation with serum-free medium for 1 h at 37°C, the medium was removed, the cells were further washed with PBS 3 times, and then imaged using fluorescence microscope (Nikon, Japan) with a band-pass filter.
# different cell lines [3] = tested on: different cell lines
# Protocol: Cells were seeded in 96-well plates at 24 h before treatment. […] MTT solution (5 mg/mL) was added into fresh serum medium for further 4 h incubation. DMSO was used to solubilize formazan, and the absorbance was measured using a Multiskan Spectrum plate reader (Thermo, USA).
# Caski cells = type: cell-based, human
# Protocol: as §1
# different cell lines [4] = tested on: different cell lines; remark: listed apart in the source
# Protocol: Membrane integrity was assessed by lactate dehydrogenase (LDH) leakage into the culture medium. […] Cell-free supernatant was obtained and transferred to another 96-well-plate; substrate mixture was added to each well for another 10 min enzymatic reaction. Absorbance was measured at 560/590 nm using a Multiskan Spectrum plate-reader (Thermo, USA).
Sequence,"Permeation of cancerous or immortalized cell lines (different cell lines [1]; B16, ECV304, HepG2, T24, L929, HSC-T6, THP1, 5 μM FITC-labeled peptide, 1 h)",Permeation of primary cultured cells [2],"Cytotoxicity, MTT assay (different cell lines [3])",Fluorescence of cytosol compared with TAT-FITC (Caski cells),"Membrane disturbance, LDH release (different cell lines [4])","Effect of heparin on cellular uptake (different cell lines [1]; co-incubated with 0.5 U/mL heparin, different cells)","Effect of serum on penetrating efficiency (different cell lines [1]; different cell lines, mean ± SD for 3 samples)",Effect of temperature on internalization (different cell lines [1]),Duration of intracellular fluorescence (Caski cells)
KIPLPRFKLKCIFCKKRRKR [hPP10],capable of permeating a wide variety of cancerous or immortalized cell lines,able to permeate into primary cultured cells,minimal cytotoxicity,higher than TAT-FITC group,low membrane disturbance,,,,
"KIPLPRFKLKCIFCKKRRKR [hPP10-FITC, synthesized FITC-labeled hPP10 peptide]",,,,,,greatly decreased in the presence of heparin,decreased in the presence of serum,less energy-sensitive than that of TAT-FITC without DMSO treatment,long-lasting fluorescence than TAT-FITC
"YGRKKRRQ RRRK [TAT-FITC, FITC-labeled HIV-1 TAT peptide used for positive control, reference compound]",,,,,,,,energy-dependent with or without DMSO treatment,
